# Assay results published in patent US7879870B2, “Treatment of inflammatory and ulcerative diseases of the bowel with opioid antagonists” (priority 2006, dated 2011).
# “Also recorded” adds a separate entry of the source.
# Experiments:
# [1] = system: DSS-induced colitis in mice; test: DSS-induced colitis in mice: weight, food and water intake, modified DAI, colon length; type: in vivo, mouse
# Excerpt: Six to eight-week-old male C57 black/6J mice (Charles River Laboratories, Inc., Wilmington, Mass.) were randomly allocated into one of two groups of 24 mice each. Food and water were provided ad libitum. The first group (Normal) received normal drinking water and the second group (DSS) received water containing 2% dextran sulfate sodium having a molecular weight of 40,000 (TdB Consultancy AB, Uppsala, Sweden) for six days followed by normal water for three additional days and necropsy on day 9 (FIG. 5A). Each mouse was housed in an individual cage for accurate measurement of food and water intake. Animal weight, water intake, and food consumption were measured daily. Bedding was changed and fresh stool pellets were collected daily and analyzed for occult blood. The colitis disease activity index (DAI) was calculated for each mouse according to the system established by Murthy and colleagues. See, Murthy, et al., “Treatment of dextran sulfate sodium-induced murine colitis by intracolonic cyclosporin,” Dig. Dis. Sci. 38, 1722-34 (1993). Overt changes in stool consistency were rarely discerned so a modified DAI was calculated based on percent weight loss and stool hemoccult or presence of gross bleeding.
# (§1) Mice in each group (Normal or DSS) were randomly subdivided into three treatment groups of eight mice each. After 72 hours, mice were treated once daily for six consecutive days with a subcutaneous injection (0.1 mL) of one of the following: saline (control), 6.3 μg/kg naltrexone (“NTX”), or 350 μg/kg NTX (Sigma Chemicals, St. Louis, Mo.). On day 9, all animals were necropsied and their colons resected.
# (§2) At necropsy, the entire colon was excised, measured in length, and bisected into proximal and distal portions. The proximal and distal colons were additionally divided for RNA extraction and histology. Each histology specimen was fixed in 10% neutral buffered formalin, paraffin embedded and sectioned for hematoxylin and eosin (“H&E”) staining. Specimens were examined microscopically and scored based upon the criteria established by Williams et al. by an investigator blinded to the treatment groups. Williams, et al., “Enhanced survival and mucosal repair after dextran sodium sulfate-induced colitis in transgenic mice that overexpress growth hormone,” Gastroenterology 120, 925-37 (2001). Briefly, a representative longitudinal section from each mouse was scored at six random fields for inflammation severity, extent of inflammation (mucosa, submucosa, transmural) and crypt damage. Each of these scores was weighted to reflect the percent involvement of the overall section and the weighted scores from each of the six fields were averaged to achieve an overall inflammation score for each mouse.
# (§3) Results were calculated as mean±SEM. Statistical comparisons were performed between NTX treatment sub-groups and their corresponding saline control, as well as between the Normal and DSS groups, comparing corresponding treatments. Parametric analyses were performed (Minitab 13, State College, Pa.) using a modified Bonferroni method to correct for multiple comparisons to controls.
# [2] = system: DSS-induced colitis in mice; test: DSS-induced colitis in mice: histological inflammation score of distal colon (H&E); type: in vivo, mouse
# Experimental: as §1, §2, §3
# [3] = system: mucin (Muc2), trefoil factor (TFF3), TGF-beta binding protein mRNA; test: Distal colon RNA of DSS mice, microarray and quantitative RT-PCR; type: in vivo, mouse
# Excerpt: (§4) Total RNA was extracted from the distal colon samples (using TRIZOL® available from Invitrogen Corp., Carlsbad, Calif.; TRIZOL® is a trademark of Molecular Research Center, Inc. of Cincinnati, Ohio) and subjected to microarray analysis using a 10K mouse microarray (MWG Biotech, High Point, N.C.) and a Packard Biosciences ScanArray 4000KL machine (Functional Genomics Core Facility of the Section of Research Resources, Penn State College of Medicine). To minimize the impact of variation among animals, RNA from individual mice was pooled within each treatment group. […] RNA from Normal+saline, DSS+6.3 μg/kg NTX, and DSS+350 μg/kg NTX were each tested versus DSS+saline. Data were analyzed with GenSpring 6 software (Agilent Technologies, Palo Alto, Calif.).
# RNA (18S and 28S bands) was visualized using the Agilent 2100 Bioanalyzer (Agilent Technologies, Santa Clara, Calif.) and concentrations were adjusted. […] The concentration and quality of resulting cDNA was quantified and analyzed using the Agilent 2100 Bioanalyzer or spectroscopically with the NanoDrop ND-1000 (NanoDrop Technologies, Wilmington, Del.). […] PCR amplification and analysis were performed with the Applied Biosystems Sequence Detection System 7300 using the Relative Quantification (ddCt). […]
# IL-12 mRNA = test: Distal colon RNA of DSS mice, real-time RT-PCR; type: in vivo, mouse; conditions: DSS mice treated with naltrexone
# Excerpt: as §4
# (§5) RNA (18S and 28S bands) was visualized using the Agilent 2100 Bioanalyzer (Agilent Technologies, Santa Clara, Calif.) and concentrations were adjusted. First strand cDNA was then produced from 1.0 μg of total RNA using random hexamer primers and the SuperScript III Reverse Transcription kit (Invitrogen). The concentration and quality of resulting cDNA was quantified and analyzed using the Agilent 2100 Bioanalyzer or spectroscopically with the NanoDrop ND-1000 (NanoDrop Technologies, Wilmington, Del.). Samples were standardized to 30 ng/μL and 60 ng of cDNA per sample was then used as a template for real-time PCR using a SYBR Green Master Mix (Qiagen, Valencia, Calif.). 18S rRNA primers (Eurogentec, San Diego, Calif.) and the following gene-specific primer sequences obtained from PrimerBank (pga.mgh.harvard.edu/primerbank) were used: beta-actin, 6671509a; IL-5, 6754336a; IL-6, 13642311a; IL-12, 6680395a; STAT3, 13277852a; STAT4, 6755670a; Muc2, 3452503a2; TFF3, 6755773a1; Palladin, 9828173a1; and TGF-beta BP, 7305243a1. To exclude the possibility of genomic DNA contamination, control reactions with no cDNA template were also performed for each gene-specific primer set. PCR amplification and analysis were performed with the Applied Biosystems Sequence Detection System 7300 using the Relative Quantification (ddCt). Amplification data for the genes of interest were normalized to 18S within each individual reaction. Triplicate reactions were performed and the resultant data from multiple runs were averaged.
# IL-5 mRNA = test: Distal colon RNA of DSS mice, real-time RT-PCR; type: in vivo, mouse; conditions: DSS+NTX
# Excerpt: as §4, §5
# IL-6 mRNA = test: Distal colon RNA of DSS mice, real-time RT-PCR; type: in vivo, mouse; conditions: DSS mice treated with naltrexone
# Excerpt: as §4, §5
# STAT3 mRNA = test: Distal colon RNA of DSS mice, real-time RT-PCR; type: in vivo, mouse
# Excerpt: as §4, §5
# STAT4 mRNA = test: Distal colon RNA of DSS mice, real-time RT-PCR; type: in vivo, mouse
# Excerpt: as §4, §5
# beta-actin mRNA = test: Distal colon RNA of DSS mice, real-time RT-PCR; type: in vivo, mouse; conditions: DSS+NTX
# Excerpt: as §4, §5
# [4] = higher doses, i.e. 50 mg; cited from earlier work
# [5] = DSS mice treated with naltrexone
structure (smiles),measurement,setting,value
O=C1CC[C@@]2(O)[C@H]3Cc4ccc(O)c5c4[C@@]2(CCN3CC2CC2)[C@H]1O5 [naltrexone],Colon length,"[1]; DSS mice treated with naltrexone, still shorter than in untreated animals",more normal colon lengths
same,DAI scores / disease symptoms compared to DSS+saline (in words),"[1]; DSS mice, 350 μg/kg",lower DAI scores; also recorded: decreased
same,Weight loss compared to DSS mice treated with saline,"[1]; DSS mice, 350 μg/kg",less weight loss; also recorded: decreased
same,Weight loss compared to DSS+saline,"[1]; DSS mice, naltrexone s.c. once daily from 72 hours",tended to be less
same,DAI scores of DSS mice (in words),"[1]; DSS mice, naltrexone treatment",A reduction in these DAI scores was evident
same,"Weight loss compared to DSS+saline, statistical significance","[1]; DSS+6.3 μg/kg NTX, p=0.02",only reached statistical significance on day 6
same,Modified DAI scores,"[1]; Normal mice (no DSS), NTX-treated",no evidence of colitis
same,DAI scores lower than DSS+saline mice,"[1]; day 6, DSS+350 μg/kg NTX, p=0.015",55%
same,Weight at necropsy among the three DSS sub-groups,"[1]; day 9, off DSS for three days",no significant difference in weight
same,Food consumption,"[1]; naltrexone treatment alone (Normal mice, no DSS)",no effect on food consumption
same,Inflammation by histology compared to DSS+saline (in words),"[2]; DSS mice, 350 μg/kg",less inflammation; also recorded: improved
same,Crypt architecture and invading leukocytes compared to DSS+saline,[2]; DSS+350 μg/kg NTX,improved crypt architecture and fewer invading leukocytes
same,Inflammation scores of distal colon compared to DSS+saline,"[2]; DSS+NTX 6.3 and 350 μg/kg, trend did not reach statistical significance",dose-dependent decrease in inflammation and damage
same,"Colonic inflammation, histology, Normal+saline versus Normal+NTX",[2]; Normal mice (no DSS),No differences in colonic inflammation
same,Mucosal integrity of the colon,[2]; naltrexone alone (no DSS),did not alter the mucosal integrity of the colon
same,"Levels of Muc2, TFF3 and TGF-beta binding protein mRNAs, microarray","[3]; DSS animals, either 6.3 or 350 μg/kg",restored the levels of these mRNAs in DSS animals to varying extents
same,"Levels of Muc2, TFF3 and TGF-beta binding protein mRNAs, quantitative RT-PCR, versus Normal animals",[3]; DSS+NTX animals,not significantly different from Normal animals
same,IL-12 mRNA level versus colitis-free mice,IL-12 mRNA,"decreased to levels near or equal to that in mice without colitis; also recorded: restored mRNA expression to that seen in the colitis-free, Normal mice"
same,IL-12 mRNA level versus DSS+saline,IL-12 mRNA; DSS+saline increased three-fold,greatly reduced
same,Expression of IL-5,IL-5 mRNA,not significantly changed
same,IL-6 mRNA level versus colitis-free mice,IL-6 mRNA,decreased to levels near or equal to that in mice without colitis; also recorded: not completely restored to those seen in the colitis-free animals
same,IL-6 mRNA level versus DSS+saline,IL-6 mRNA; DSS+saline increased 73-fold,greatly reduced
same,STAT3 mRNA level versus colitis-free Normal controls,STAT3 mRNA; [5],"statistically indistinguishable from colitis-free, Normal controls"
same,"STAT3 mRNA level, decrease after naltrexone treatment","STAT3 mRNA; DSS mice, DSS+saline increased 2.20-fold",greater than 50%
same,DSS-induced up-regulation of STAT3 expression (in words),STAT3 mRNA; DSS-treated mice,reversed
same,STAT4 mRNA level versus Normal mice,STAT4 mRNA; [5],still slightly higher than in the Normal mice
same,"STAT4 mRNA level, decrease after naltrexone treatment","STAT4 mRNA; DSS mice, DSS+saline increased 8.03-fold",greater than 50%
same,DSS-induced up-regulation of STAT4 expression (in words),STAT4 mRNA; DSS-treated mice,reversed
same,Expression of beta-actin,beta-actin mRNA,not significantly changed
same,Liver transaminases,[4],elevate liver transaminases
